Tests used:
[1] = system: E. coli O157:H7; type: cell-based; details: sugar in MacConkey medium; BMO 2 g per 100 ml; strain 3
[2] = system: E. coli K12; test: Growth on MacConkey agar plates (lactose or BMO); type: cell-based; details: sugar in MacConkey medium; BMO 2 g per 100 ml; strain 1
Procedure: (§1) FIGS. 3A-3B illustrate growth of select pathogens on BMO. […] The Lac operon permease can transport BMO trimers and tetramers. […] BMOs were suspended at 1 gr/10 mL of sterile water, 10 N NaOH was added until the pH was 7. The BMO solution was used in a MacConkey medium to generate agar plates.

[3] = system: Yersinia enterocolitica; test: Growth on MacConkey agar plates (lactose or BMO); type: cell-based; details: sugar in MacConkey medium; BMO 2 g per 100 ml; strain 9
Procedure: as §1

[4] = system: Salmonella typhimurium+lac operon; test: Growth on MacConkey agar plates (lactose or BMO); type: cell-based; details: sugar in MacConkey medium; BMO 2 g per 100 ml; strain 5
Procedure: as §1

[5] = system: E. coli K12 (DH5alpha, lac minus); test: Growth on MacConkey agar plates (lactose or BMO); type: cell-based; details: sugar in MacConkey medium; BMO 2 g per 100 ml; strain 2
Procedure: as §1

[6] = system: Salmonella typhimurium; type: cell-based, Salmonella enterica seovar Typhimurium; details: sugar in MacConkey medium; BMO 2 g per 100 ml; strains 4, 6, 7
[7] = system: Vibrio cholerae; type: cell-based; details: sugar in MacConkey medium; BMO 2 g per 100 ml; strains 10, 11
[8] = system: Listeria monocytognes; test: Growth on MacConkey agar plates (lactose or BMO); type: cell-based, Listeria monocytogenes; details: sugar in MacConkey medium; BMO 2 g per 100 ml; strain 8
Procedure: as §1

For `OC[C@H]1O[C@@H](O[C@H]2[C@H](O)[C@@H](O)C(O)O[C@@H]2CO)[C@H](O)[C@@H](O)[C@H]1O` (some centres unmarked) [Lactose], the “growth on MacConkey agar plate (red strikes)” value (“growth … (red strikes)” for short) [1] was “growth observed”, the “growth … (red strikes)” value [2] was “growth observed” and the “growth on MacConkey agar plate” value [3] was “negative”. The “growth … (red strikes)” value [4] was “growth observed”, the “growth on MacConkey agar plate” value [5] was “negative” and the “growth on MacConkey agar plate” value [6] was “negative”. The “growth on MacConkey agar plate” value [7] was “negative” and the “growth on MacConkey agar plate” value [8] was “negative”.

Source: patent US10918653B2, “Bovine milk oligosaccharides” (The Regents of the University of California, priority 2010, dated 2021)
